The results in this text go back to patent US8017612B2, “Piperazine compound and use thereof as a HCV polymerase inhibitor” (priority 2006, dated 2011).

Broadly, the pIC50 is the negative decadic logarithm of the IC50, by convention in mol/L. Read a high pIC50 as a low IC50.

pIC50: −log10 of the molar value. Where only a bound is given, the exact number is not on record here.

For test [1], the target named is T1, HCV polymerase (NS5B) type 1b (Hepatitis C virus genotype 1b, UniProt P26663).
T1 construct: a region encoding NS5B (J Virol 1991 March, 65(3), 1105-13, 544 amino acids after deletion of 47 amino acids on the C-terminal); 6xHis (C); made in house; host or cells: Escherichia coli
Nature of the test: Assay of enzyme (HCV polymerase) inhibitory activity, type 1b enzyme. The test is classed as biochemical, HCV BK strain (type 1b). Summed up: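 Rxn: NS5B 1b (BK, ΔC47, His6) 0.5 μg/ml; substrate RNA 5 μg/ml; ATP/GTP/CTP 50 μM, UTP 2 μM + [5,6-3H]UTP; 20 mM Tris pH 7.5, 5 mM MgCl2, 50 mM NaCl, 1 mM EDTA/DTT. 25 °C, 60 min. Stop with TCA/pyrophosphate, filter, scintillation count; IC50 vs. untreated.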

Test [2] concerns the target T2, HCV polymerase (NS5B) type 1a (Hepatitis C virus genotype 1a, UniProt P26664).
T2 construct: made in house; host or cells: Escherichia coli (by the 'similar method' of the 1b enzyme)
Nature of the test: Assay of enzyme (HCV polymerase) inhibitory activity, type 1a enzyme. The test is classed as biochemical, HCV type 1a (cloned from the blood of patients). Summed up: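 NS5B Δ47 C-term His6 (type 1a, 1.5 μg/ml); substrate RNA 5 μg/ml; ATP/GTP/CTP 50 μM, UTP 2 μM + [5,6-3H]UTP; Tris pH 7.5, MgCl2 5 mM; 25° C, 60 min. TCA/pyrophosphate stop, GF/B filter, scintillation. IC50 vs no-compound control.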

Setting [3] is: HCV polymerase inhibitory activity (IC50), 1b, type 1b enzyme 0.5 μg/ml, 25° C., 60 min.
Setting [4] is: HCV polymerase inhibitory activity (IC50), 1a, type 1a enzyme 1.5 μg/ml, 25° C., 60 min.
Where [5] appears, read: HCV polymerase inhibitory activity IC50, 1b, type 1b enzyme.
Where [6] appears, read: HCV polymerase inhibitory activity IC50, 1a, type 1a enzyme.

On to `CCOC(=O)Cc1nnnn1CC(=O)N1CCN(S(=O)(=O)c2ccc(C(F)(F)F)cc2)[C@@H](C(=O)NCc2ccc(C(C)C)cc2)C1` [Example 311, (1-{2-[(R)-3-(4-isopropyl-benzylcarbamoyl)-4-(4-trifluoromethyl-benzenesulfonyl)-piperazin-1-yl]-2-oxo-ethyl}-1H-tetrazol-5-yl)-acetic acid ethyl ester], for which the pIC50 in test [1] (setting [3]) and in test [2] (setting [4]) was 6.00 to 7.00 in each case.
Take `CCOC(=O)c1ccc2nc(N3CCN(S(=O)(=O)c4ccc(OC(F)(F)F)cc4)[C@@H](C(=O)NCc4ccc(C(F)(F)CC)cc4)C3)cnc2c1` [Example 693, 2-[(R)-3-[4-(1,1-difluoro-propyl)-benzylcarbamoyl]-4-(4-trifluoromethoxy-benzenesulfonyl)-piperazin-1-yl]-quinoxaline-6-carboxylic acid ethyl ester]: the negative-log IC50 (pIC50) in test [1] (setting [5]) was 6.00 to 7.00; in test [2] (setting [6]), under 6.00.
Take `CC(C)c1ccc(CNC(=O)[C@H]2CN(C(=O)Nc3ccc(N(C)C)cc3)CCN2S(=O)(=O)c2ccc(C(F)(F)F)cc2)cc1` [Example 200, (R)-4-(4-trifluoromethyl-benzenesulfonyl)-piperazine-1,3-dicarboxylic acid 1-[(4-dimethylamino-phenyl)-amide] 3-(4-isopropyl-benzylamide)]: the negative logarithm of the IC50 (pIC50) in test [1] (setting [3]) is 6.00 to 7.00; in test [2] (setting [4]) it was under 6.00.
Take `CCCc1ccc(CNC(=O)[C@H]2CN(c3cnc4cnccc4n3)CCN2S(=O)(=O)c2ccc(I)cc2)cc1` [Example 777, (R)-1-(4-iodo-benzenesulfonyl)-4-pyrido[3,4-b]pyrazin-2-yl-piperazine-2-carboxylic acid 4-propyl-benzylamide]: the pIC50 in test [1] (setting [5]) and in test [2] (setting [6]) was over 7.00 in each case.
In the case of `CCc1ccc(S(=O)(=O)N2CCN(c3cnc(CO)cn3)C[C@@H]2C(=O)NCc2ccc(OC(F)(F)F)cc2)cc1` [Example 796, (R)-4-(4-ethyl-benzenesulfonyl)-5′-hydroxymethyl-3,4,5,6-tetrahydro-2H-[1,2′]bipyrazinyl-3-carboxylic acid 4-trifluoromethoxy-benzylamide], the pIC50 in test [1] (setting [5]) and in test [2] (setting [6]) was over 7.00 each time.
Regarding `CCCN(C)c1ccc(CNC(=O)C2CN(C(C)=O)CCN2S(=O)(=O)c2ccc(C(C)C)cc2)cc1` (stereo not drawn) [Example 202, 4-acetyl-1-(4-isopropyl-benzenesulfonyl)-piperazine-2-carboxylic acid 4-(methyl-propyl-amino)-benzylamide], the pIC50 in test [1] (setting [3]) was 6.00 to 7.00; in test [2] (setting [4]) it was under 6.00.
Consider `CCC(F)(F)c1ccc(CNC(=O)[C@H]2CN(c3cnc4ccc(Br)cc4n3)CCN2S(=O)(=O)c2ccc(OC(F)(F)F)cc2)cc1` [Example 685, (R)-4-(7-bromo-quinoxalin-2-yl)-1-(4-trifluoromethoxy-benzenesulfonyl)-piperazine-2-carboxylic acid 4-(1,1-difluoro-propyl)-benzylamide], for which the pIC50 in test [1] (setting [5]) and in test [2] (setting [6]) was 6.00 to 7.00 throughout.
As to `CC(C)c1ccc(CNC(=O)[C@H]2CN(c3ccc(C(=O)O)nn3)CCN2S(=O)(=O)c2ccc(C(F)(F)F)cc2)cc1` [Example 376, 6-[(R)-3-(4-isopropyl-benzylcarbamoyl)-4-(4-trifluoromethyl-benzenesulfonyl)-piperazin-1-yl]-pyridazine-3-carboxylic acid], the pIC50 in test [1] (setting [3]) and in test [2] (setting [4]) was over 7.00 in each case.
As to `O=C(NCc1ccc(OC(F)(F)F)cc1)[C@H]1CN(c2cnc3cnccc3n2)CCN1S(=O)(=O)c1ccc(C(F)(F)F)cc1` [Example 757, (R)-4-pyrido[3,4-b]pyrazin-2-yl-1-(4-trifluoromethyl-benzenesulfonyl)-piperazine-2-carboxylic acid 4-trifluoromethoxy-benzylamide], the pIC50 in test [1] (setting [5]) and in test [2] (setting [6]) was over 7.00 throughout.
As for `O=C(NCc1ccc(OC(F)F)cc1)[C@H]1CN(c2nn3ccc(=O)nc3s2)CCN1S(=O)(=O)c1ccc(OC(F)F)cc1` [Example 1063, (R)-1-(4-difluoromethoxy-benzenesulfonyl)-4-(7-oxo-7H-[1,3,4]thiadiazolo[3,2-a]pyrimidin-2-yl)-piperazine-2-carboxylic acid 4-difluoromethoxy-benzylamide], the negative-log IC50 (pIC50) in test [1] (setting [5]) and in test [2] (setting [6]) was over 7.00 throughout.
`CCC(F)(F)c1ccc(CNC(=O)[C@H]2CN(c3cnc4[nH]cnc4n3)CCN2S(=O)(=O)c2ccc(OC(F)(F)F)cc2)cc1` [Example 676, (R)-4-(1H-imidazo[4,5-b]pyrazin-5-yl)-1-(4-trifluoromethoxy-benzenesulfonyl)-piperazine-2-carboxylic acid 4-(1,1-difluoro-propyl)-benzylamide]: the pIC50 in test [1] (setting [5]) and in test [2] (setting [6]) was over 7.00 in each case.
For `CCCc1ccc(CNC(=O)[C@H]2CN(c3nc(C)c(C(=O)C(=O)OCC)s3)CCN2S(=O)(=O)c2ccc(OC(F)(F)F)cc2)cc1` [Example 846, {4-methyl-2-[(R)-3-(4-propyl-benzylcarbamoyl)-4-(4-trifluoromethoxy-benzenesulfonyl)-piperazin-1-yl]-thiazol-5-yl}-oxo-acetic acid ethyl ester], the values for the negative-log IC50 (pIC50) in test [1] (setting [5]) and in test [2] (setting [6]) were over 7.00 and 6.00 to 7.00, respectively.
As to `CCC(F)(F)c1ccc(CNC(=O)[C@H]2CN(c3cnc(CO)cn3)CCN2S(=O)(=O)c2ccc(OC(F)(F)F)cc2)cc1` [Example 560, (R)-5′-hydroxymethyl-4-(4-trifluoromethoxy-benzenesulfonyl)-3,4,5,6-tetrahydro-2H-[1,2′]bipyrazinyl-3-carboxylic acid 4-(1,1-difluoro-propyl)-benzylamide], the pIC50 in test [1] (setting [3]) and in test [2] (setting [4]) was over 7.00 in each case.
Consider `CC(C)(C)c1ccc(CNC(=O)[C@H]2CN(c3nc4c(s3)CNCC4)CCN2S(=O)(=O)c2ccc(OC(F)(F)F)cc2)cc1` [Example 588, (R)-4-(4,5,6,7-tetrahydro-thiazolo[5,4-c]pyridin-2-yl)-1-(4-trifluoromethoxy-benzenesulfonyl)-piperazine-2-carboxylic acid 4-tert-butyl-benzylamide], for which the pIC50 in test [1] (setting [3]) and in test [2] (setting [4]) was over 7.00 throughout.
Consider `CC(=O)N1CCN(S(=O)(=O)c2ccc(C)cc2)C(C(=O)NCc2ccc(C(F)(F)F)cc2)C1` (stereo not drawn) [Example 64, 4-acetyl-1-(toluene-4-sulfonyl)-piperazine-2-carboxylic acid 4-trifluoromethyl-benzylamide], for which the pIC50 in test [1] (setting [3]) and in test [2] (setting [4]) was under 6.00 throughout.
Regarding `O=C(O)CCc1cncc2ncc(N3CCN(S(=O)(=O)c4ccc(OC(F)(F)F)cc4)[C@@H](C(=O)NCc4ccc(OC(F)(F)F)cc4)C3)nc12` [Example 808, 3-{2-[(R)-4-(4-trifluoromethoxy-benzenesulfonyl)-3-(4-trifluoromethoxy-benzylcarbamoyl)-piperazin-1-yl]-pyrido[3,4-b]pyrazin-8-yl}-propionic acid], the pIC50 in test [1] (setting [5]) and in test [2] (setting [6]) was over 7.00 each time.
For the compound `O=C(NCc1ccc(OC(F)(F)F)cc1)[C@H]1CN(c2nc3nnncc3s2)CCN1S(=O)(=O)c1ccc(OC(F)(F)F)cc1` [Example 987, (R)-4-thiazolo[4,5-d][1,2,3]triazin-6-yl-1-(4-trifluoromethoxy-benzenesulfonyl)-piperazine-2-carboxylic acid 4-trifluoromethoxy-benzylamide], the pIC50 in test [1] (setting [5]) and in test [2] (setting [6]) was over 7.00 throughout.
Regarding `CCCc1ccc(S(=O)(=O)N2CCN(c3nc(C)c(C(=O)OC(C)(C)C)s3)C[C@@H]2C(=O)NCc2ccc(C(C)C)cc2)cc1` [Example 319, 2-[(R)-3-(4-isopropyl-benzylcarbamoyl)-4-(4-propyl-benzenesulfonyl)-piperazin-1-yl]-4-methyl-thiazole-5-carboxylic acid tert-butyl ester], the negative-log IC50 (pIC50) in test [1] (setting [3]) is 6.00 to 7.00; in test [2] (setting [4]), under 6.00.
For `CCCc1ccc(CNC(=O)[C@H]2CN(C(=O)Nc3ccccc3O)CCN2S(=O)(=O)c2ccc(OC(F)(F)F)cc2)cc1` [Example 834, (R)-4-(4-trifluoromethoxy-benzenesulfonyl)-piperazine-1,3-dicarboxylic acid 1-[(2-hydroxy-phenyl)-amide] 3-(4-propyl-benzylamide)], the pIC50 in test [1] (setting [5]) and in test [2] (setting [6]) was 6.00 to 7.00 in each case.
For the compound `CCCc1ccc(CNC(=O)[C@H]2CN(c3cnc(C(=O)O)cn3)CCN2S(=O)(=O)c2ccc(CCC)cc2)cc1` [Example 440, (R)-4-(4-propyl-benzenesulfonyl)-3-(4-propyl-benzylcarbamoyl)-3,4,5,6-tetrahydro-2H-[1,2′]bipyrazinyl-5′-carboxylic acid], the pIC50 in test [1] (setting [3]) and in test [2] (setting [4]) was over 7.00 in each case.
`CCC(F)(F)c1ccc(CNC(=O)[C@H]2CN(C(=O)C(=O)O)CCN2S(=O)(=O)c2ccc(OC(F)(F)F)cc2)cc1` [Example 679, [(R)-3-[4-(1,1-difluoro-propyl)-benzylcarbamoyl]-4-(4-trifluoromethoxy-benzenesulfonyl)-piperazin-1-yl]-oxo-acetic acid]: the pIC50 in test [1] (setting [5]) and in test [2] (setting [6]) was under 6.00 throughout.
